In patent publication US9244057B2, “Multiphase microarrays and uses thereof” (THE REGENTS OF THE UNIVERSITY OF MICHIGAN, priority 2010, dated 2016):
Blank lines part the entries; values can stand above or below the compound they belong to.

System: MDA-MB-231 breast cancer cells
Experiment: cell-exclusion migration assay (aqueous two-phase system patterning, 96-well plate)
Type: cell-based, human
Settings: MDA-MB-231 cells; for effect on motility/migration of cells (in words): blebbistatin 5-200 μM for 18 hrs, then another 12 hrs in culture medium before imaging
Procedure: 6.4% (w/w) solution of the DEX 500K phase was prepared in culture media and kept at 4° C. until use. The tip magazine of an automated liquid handler (CyBi-Well, CyBio) was loaded with 96 sterile 25 μl pipette tips (CyBio). 75 μl of the DEX solution was pipetted into each well of a 96-well microplate (Corning), which was then placed on the stage of the liquid handler. To load pipette tips with the DEX solution, the stage was slowly raised until the pipette tips were slightly inside the DEX solution. 10 μl of the DEX solution was aspirated into the tips at a rate of 5 μl/s. The loaded tips were brought within 200 μm of the bottom of the wells of an empty microplate and 0.8 μl of the DEX solution was dispensed onto the surface at a rate of 0.5 μl/s to form circular droplets. The microplate was kept in a culture hood for at least 24 hrs to allow the droplets to dry. Images of the dried droplets were captured using a bright-field microscope (Nikon, TS-200). The Feret diameters of the droplets were determined using the “Analyze Particles” function of ImageJ (NIH). Droplets whose Feret diameters were not within ˜1% of the desired mean diameter were excluded from use in the assay. The entire printing and drying process was performed in a sterile culture hood.
Three different human cancer cell lines were used: MDA-MB-231 breast cancer cells (ATCC) were cultured in DMEM medium supplemented with 10% heat-inactivated fetal bovine serum (HI-FBS, Invitrogen), 1% glutamine (Invitrogen), and 1% antibiotic. A549 lung cancer cells (ATCC) were cultured using F-12K medium (ATCC) supplemented with 10% HI-FBS and 1% antibiotic. PC-3 prostate cancer cells were maintained in DMEM supplemented with 10% HI-FBS and 1% antibiotic. Cells were maintained in a cell culture incubator at 37° C. with 5% CO2 and 95% humidity. When at desired confluence, cells were washed with PBS and Hank's-based enzyme-free cell dissociation buffer was added to the flask. Cells were incubated for 30 min and then collected and suspended in complete growth medium. After centrifuging down for 5 min at 4° C. and 1000 rpm, cells were resuspended in appropriate volume of the culture medium to give a density of 2×10^6 cells/ml.
5.0% (w/w) solution of the PEG 35K phase was prepared in culture media and kept at 4° C. until use. This solution was added to the cell suspension at a 1:1 (v/v) ratio to give a final PEG phase concentration of 2.5%. Prior to this step, cell suspension density was adjusted by addition of culture media to result in a final density of 4.5×10^4 MDA-MB-231 cells, 4.0×10^4 A549 cells, and 4.5×10^4 PC-3 cells after addition of the PEG-containing media. These cell densities were selected from preliminary experiments that evaluated the number of cells required to form a confluent monolayer per unit surface area. 80 μl of the resulting solution was added to each well of a 96-well plate, which was incubated at 37° C. with 5% CO2 and 95% humidity overnight (12 hrs). Then, the two-phase media was washed out and replaced with regular culture media. This was set as the time zero of the migration experiment.
After allowing MDA-MB-231 cells to spread and form a confluent monolayer around the cell excluded gaps, they were treated with (±)-blebbistatin at different concentrations in the range 5-200 μM or anti-cancer drugs paclitaxel, colchicine, and nocodazole in the concentration range of 1-1000 nM. Cells were incubated for 18 hrs in the presence of blebbistatin, washed with PBS once, and regular culture medium was added. Incubation continued for another 12 hrs before imaging. To study the effect of anti-cancer drugs, cells were incubated with each drug for 2 hrs, washed with PBS, and then supplied with culture medium. Imaging was performed after 30 hrs of incubation. Experiments were set in 30 replicates. All reagents were purchased from Sigma.
After migration experiments were complete, cells were stained with a 5 μM Calcein AM and the plates were incubated at 37° C. for 30 min. […]

[1] = 2 hr treatment, tested 1-1000 nM, imaging after 30 hrs

IC50 (six concentrations 5-200 μM for 18 hrs, BioDataFit software, read-out: IC50 for inhibition of cell migration): 31.8 µM
Structure (SMILES): Cc1ccc2c(c1)C(=O)C1(O)CCN(c3ccccc3)C1=N2 (racemic) [blebbistatin, (±)-blebbistatin]
effect on motility/migration of cells (in words): dose-dependent response
effect on motility/migration of cells (in words) (listed as Blebbistatin): dose-dependent inhibition

Structure (SMILES): COC(=O)Nc1nc2ccc(C(=O)c3cccs3)cc2[nH]1 [Nocodazole, nocodazole]
reduction of migration [1]: less than 20%

Structure (SMILES): CC(=O)O[C@H]1C(=O)[C@@]2(C)[C@H]([C@H](OC(=O)c3ccccc3)[C@]3(O)C[C@H](OC(=O)[C@H](O)[C@@H](NC(=O)c4ccccc4)c4ccccc4)C(C)=C1C3(C)C)[C@]1(OC(C)=O)CO[C@@H]1C[C@@H]2O [Paclitaxel, paclitaxel]
concentration range showing potency for inhibiting cell motility [1]: 0.01 to 0.1 µM

Structure (SMILES): COc1cc2c(c(OC)c1OC)-c1ccc(OC)c(=O)cc1[C@@H](NC(C)=O)CC2 [colchicine]
effect on cell motility (in words) (2 hr treatment, tested 1-1000 nM, imaging after 30 hrs, especially above 100 nM): reduced cell motility in a dose-dependent manner
